± gives the standard deviation of the averaged measurements.
Tests used:
[1] = compound: COc1cc2ncnc(Nc3ccc(F)c(Cl)c3)c2cc1OCCCN1CCOCC1 [GEFITINIB]; assay: surviving fraction relative to DMSO-only wells; higher = less growth inhibition; settings: exposure time: 5 days
In short: (§1)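 Surviving fraction was calculated by normalising CellTiter-Glo luminescence to the median of DMSO-only wells. Tumour cell lines in log phase were seeded in 384-well plates at 250–500 cells per well, and 24 hours later were exposed continuously for five days to inhibitors at 0.5, 1, 5, 10, 50, 100, 500 and 1000 nM.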

[2] = compound: CC(=O)c1c(C)c2cnc(Nc3ccc(N4CCNCC4)cn3)nc2n(C2CCCC2)c1=O; assay: as above; settings: exposure time: 5 days
In short: as §1

| Test System | surviving fraction ([1]; 0.5 nM) | surviving fraction ([1]; 1 nM) | surviving fraction ([1]; 5 nM) | surviving fraction ([1]; 10 nM) | surviving fraction ([1]; 50 nM) | surviving fraction ([1]; 100 nM) | surviving fraction ([1]; 500 nM) | surviving fraction ([1]; 1000 nM) | surviving fraction ([2]; 0.5 nM) | surviving fraction ([2]; 1 nM) | surviving fraction ([2]; 5 nM) | surviving fraction ([2]; 10 nM) | surviving fraction ([2]; 50 nM) | surviving fraction ([2]; 100 nM) | surviving fraction ([2]; 500 nM) | surviving fraction ([2]; 1000 nM) |
| --- | --- | --- | --- | --- | --- | --- | --- | --- | --- | --- | --- | --- | --- | --- | --- | --- |
| DU4475 BREAST | 0.921 ± 0.068 | 0.955 ± 0.045 | 0.82 ± 0.095 | 0.914 ± 0.01 | 0.879 ± 0.14 | 0.906 ± 0.16 | 1.01 ± 0.1 | 0.889 ± 0.069 | 1.11 ± 0.15 | 1.23 ± 0.076 | 1.08 ± 0.17 | 1.08 ± 0.31 | 1.03 ± 0.3 | 0.997 ± 0.36 | 1.02 ± 0.32 | 0.951 ± 0.32 |
| HOS BONE | 1.01 ± 0.02 | 1.034 ± 0.0087 | 1.041 ± 0.01 | 1.04 ± 0.032 | 1.06 ± 0.033 | 1.07 ± 0.031 | 1.01 ± 0.021 | 0.973 ± 0.013 | 1.02 ± 0.068 | 1.03 ± 0.021 | 1.01 ± 0.022 | 1.04 ± 0.034 | 1.114 ± 0.0042 | 1.07 ± 0.06 | 1.05 ± 0.016 | 1.08 ± 0.057 |
| CASKI CERVIX | 0.956 ± 0.025 | 0.929 ± 0.096 | 0.851 ± 0.032 | 0.815 ± 0.042 | 0.556 ± 0.015 | 0.471 ± 0.011 | 0.308 ± 0.018 | 0.213 ± 0.0095 | 1.02 ± 0.062 | 0.971 ± 0.028 | 0.999 ± 0.038 | 0.977 ± 0.015 | 1.09 ± 0.034 | 1.08 ± 0.019 | 1.05 ± 0.049 | 1.05 ± 0.028 |
| HCC1395 BREAST | 1.07 ± 0.057 | 1.07 ± 0.035 | 1.18 ± 0.12 | 1.22 ± 0.17 | 1.24 ± 0.059 | 1.21 ± 0.045 | 1.2 ± 0.085 | 1.11 ± 0.039 | 1.22 ± 0.076 | 0.965 ± 0.17 | 1.19 ± 0.088 | 1.13 ± 0.087 | 1.28 ± 0.09 | 1.1 ± 0.11 | 1.31 ± 0.083 | 1.34 ± 0.07 |
| LNCAP PROSTATE | 1.1 ± 0.22 | 0.915 ± 0.067 | 0.9827 ± 0.0059 | 0.998 ± 0.043 | 0.939 ± 0.032 | 0.947 ± 0.03 | 1.03 ± 0.08 | 0.947 ± 0.12 | 0.953 ± 0.0097 | 0.975 ± 0.087 | 0.854 ± 0.13 | 0.857 ± 0.11 | 0.952 ± 0.15 | 1.1 ± 0.13 | 0.961 ± 0.079 | 0.945 ± 0.16 |
| 143B BONE | 1.07 ± 0.023 | 1.08 ± 0.075 | 1.11 ± 0.084 | 1.1 ± 0.033 | 1.14 ± 0.077 | 1.12 ± 0.054 | 1.14 ± 0.11 | 1.13 ± 0.15 | 1.042 ± 0.0092 | 1.048 ± 0.0064 | 1.03 ± 0.021 | 1.051 ± 0.0099 | 1.03 ± 0.046 | 1.043 ± 0.0099 | 1.03 ± 0.027 | 1.02 ± 0.027 |
| HMT3552 BREAST | 0.987 ± 0.065 | 1 ± 0.052 | 0.97 ± 0.038 | 0.952 ± 0.018 | 0.946 ± 0.048 | 0.94 ± 0.036 | 0.94 ± 0.017 | 0.856 ± 0.043 | 1.05 | 1.05 | 0.895 | 0.991 | 1.31 | 1.25 | 1.17 | 1.19 |
| SCC47 HEADNECK | 1.1 ± 0.034 | 1.1 ± 0.058 | 1.12 ± 0.043 | 1.06 ± 0.053 | 0.993 ± 0.017 | 0.899 ± 0.028 | 0.649 ± 0.018 | 0.602 ± 0.039 | 1.12 ± 0.087 | 1.05 ± 0.03 | 1.13 ± 0.072 | 1.1 ± 0.013 | 1.17 ± 0.065 | 1.1 ± 0.091 | 1.1 ± 0.035 | 1.04 ± 0.048 |
| NCIH441 LUNG | 1.17 ± 0.048 | 1.15 ± 0.064 | 1.07 ± 0.089 | 1.114 ± 0.0055 | 1.07 ± 0.18 | 1.12 ± 0.18 | 1.01 ± 0.21 | 0.963 ± 0.058 | 1.16 ± 0.055 | 1.1 ± 0.056 | 1.064 ± 0.0076 | 1.07 ± 0.02 | 1.08 ± 0.093 | 1.09 ± 0.052 | 1.15 ± 0.14 | 1 ± 0.13 |
| YAMATO SYNOVIAL | 1.24 ± 0.098 | 1.21 ± 0.05 | 1.25 ± 0.043 | 1.36 ± 0.15 | 1.42 ± 0.086 | 1.32 ± 0.1 | 1.35 ± 0.08 | 1.09 ± 0.046 | 1.2 ± 0.07 | 1.14 ± 0.065 | 1.28 ± 0.11 | 1.23 ± 0.14 | 1.3 ± 0.061 | 1.25 ± 0.047 | 0.984 ± 0.034 | 0.935 ± 0.056 |
| SYO1 SYNOVIAL | 1.05 ± 0.068 | 0.97 ± 0.049 | 0.982 ± 0.068 | 0.98 ± 0.012 | 0.984 ± 0.017 | 0.898 ± 0.024 | 1 ± 0.021 | 0.935 ± 0.024 | 0.989 ± 0.024 | 0.966 ± 0.021 | 0.984 ± 0.024 | 1.02 ± 0.054 | 0.995 ± 0.018 | 0.98 ± 0.066 | 0.792 ± 0.061 | 0.706 ± 0.055 |
| CCK81 LARGE INTESTINE | 0.85 ± 0.091 | 0.849 ± 0.081 | 0.77 ± 0.12 | 0.72 ± 0.06 | 0.628 ± 0.091 | 0.325 ± 0.12 | 0.0823 ± 0.018 | 0.076 ± 0.012 |  |  |  |  |  |  |  |  |
| SG27 HEADNECK | 1.11 ± 0.041 | 1.1 ± 0.074 | 1.03 ± 0.037 | 1.16 ± 0.12 | 1.14 ± 0.13 | 1.12 ± 0.13 | 1.09 ± 0.024 | 1.11 ± 0.016 | 1.18 ± 0.081 | 1.07 ± 0.1 | 1.02 ± 0.025 | 0.956 ± 0.086 | 1.08 ± 0.15 | 1.09 ± 0.1 | 1.06 ± 0.048 | 1.1 ± 0.33 |
| SKBR3 BREAST | 1 ± 0.18 | 1.04 ± 0.14 | 1.04 ± 0.089 | 1.02 ± 0.11 | 1 ± 0.062 | 0.844 ± 0.026 | 0.361 ± 0.0087 | 0.249 ± 0.03 | 1.04 ± 0.16 | 1.12 ± 0.066 | 0.958 ± 0.06 | 0.987 ± 0.22 | 0.923 ± 0.056 | 0.892 ± 0.12 | 0.82 ± 0.085 | 0.855 ± 0.067 |
| HS578T BREAST | 0.972 ± 0.039 | 0.906 ± 0.078 | 0.965 ± 0.095 | 0.878 ± 0.12 | 0.996 ± 0.13 | 0.819 ± 0.075 | 1.07 ± 0.1 | 0.899 ± 0.23 | 0.985 ± 0.087 | 1.09 ± 0.068 | 1.02 ± 0.11 | 1.02 ± 0.048 | 1.11 ± 0.15 | 1.14 ± 0.19 | 0.949 ± 0.071 | 1.13 ± 0.082 |
| MDAMB436 BREAST | 1.02 ± 0.091 | 1.01 ± 0.06 | 0.994 ± 0.026 | 1.09 ± 0.098 | 0.993 ± 0.12 | 1.03 ± 0.084 | 1.08 ± 0.098 | 1.08 ± 0.1 | 0.912 ± 0.09 | 0.888 ± 0.047 | 1.01 ± 0.054 | 0.833 ± 0.032 | 0.92 ± 0.042 | 0.915 ± 0.07 | 0.915 ± 0.082 | 0.915 ± 0.031 |
| MDAMB134 BREAST | 0.881 ± 0.014 | 0.974 ± 0.067 | 0.775 ± 0.21 | 0.873 ± 0.0099 | 1.2 ± 0.2 | 1.13 ± 0.023 | 1 ± 0.067 | 1.1 ± 0.064 | 1.031 ± 0.0085 | 1.07 ± 0.023 | 1.1 ± 0.013 | 1.07 ± 0.04 | 1.154 ± 0.0057 | 1.26 ± 0.22 | 1.28 ± 0.12 | 1.25 ± 0.11 |
| OS25HAL BONE | 1.04 ± 0.052 | 1.04 ± 0.041 | 1.06 ± 0.035 | 1.09 ± 0.066 | 1.09 ± 0.069 | 1.15 ± 0.019 | 1.08 ± 0.069 | 1.05 ± 0.029 | 1.03 ± 0.032 | 1.01 ± 0.0072 | 1.02 ± 0.011 | 1.04 ± 0.013 | 1.11 ± 0.013 | 1.05 ± 0.046 | 1.04 ± 0.054 | 0.982 ± 0.029 |
| HCC1954 BREAST | 1.25 ± 0.17 | 1.25 ± 0.25 | 1.01 ± 0.029 | 1.2 ± 0.13 | 0.855 ± 0.011 | 0.702 ± 0.0081 | 0.459 ± 0.064 | 0.408 ± 0.016 | 0.996 ± 0.22 | 0.907 ± 0.29 | 1.07 ± 0.21 | 0.901 ± 0.4 | 1.39 ± 0.17 | 1.05 ± 0.056 | 1.29 ± 0.054 | 1.36 ± 0.092 |
| MCF7 BREAST | 0.935 ± 0.02 | 0.921 ± 0.032 | 0.924 ± 0.042 | 0.935 ± 0.023 | 0.965 ± 0.017 | 0.951 ± 0.046 | 0.979 ± 0.02 | 0.964 ± 0.027 | 0.965 ± 0.043 | 0.8934 ± 0.0072 | 0.891 ± 0.03 | 0.902 ± 0.026 | 0.956 ± 0.048 | 0.934 ± 0.01 | 0.925 ± 0.037 | 0.899 ± 0.032 |
| SCC90 HEADNECK | 1.15 ± 0.1 | 1.06 ± 0.15 | 1.03 ± 0.023 | 0.85 ± 0.051 | 0.804 ± 0.019 | 0.651 ± 0.057 | 0.474 ± 0.044 | 0.465 ± 0.054 | 1.092 ± 0.0083 | 1.1 ± 0.11 | 1.12 ± 0.1 | 1.15 ± 0.025 | 1.06 ± 0.042 | 1.19 ± 0.14 | 1.12 ± 0.056 | 1.13 ± 0.13 |

Reference: the supplement of paper PMC6045584
